Reference: publication PMC4830539, “Chemical Inhibition of Histone Deacetylases 1 and 2 Induces Fetal Hemoglobin through Activation of GATA2” (PLoS ONE, 2016)

How the values were obtained:
[1] = biological target: HDAC2 (Homo sapiens, UniProt Q92769); test: Cellular HDAC2 inhibition (HDAC-Glo 2 Kit) in BM cells; type: cell-based; parameters: endogenous in cells; host or cells: primary human bone marrow (BM) cells expanded in CS1 media; settings: CS1 expansion media 6 days, then 48 hours with compound, n = 6
Method: The HDAC-Glo 2 Kit (Promega) was used for in vivo HDAC2 inhibition assays [27, 28]. First, BM cells were expanded in CS1 for 6 days. Next, 25000 cells in 25 μL of CS1 expansion media was placed in a 384-well plate in the presence of compound. Cells were cultured for an additional 48 hours, followed by luminescence detection in the lytic format as described by the manufacturer’s protocol.

[2] = system: erythroid differentiation of BM cells; test: Erythroid maturation stage by flow cytometry (TFRC and GYPA); type: cell-based, human; settings: for cells in TFRC/GYPA gate (gate not named): Fig 5A
Method: Flow cytometry was performed on a FC500 flow cytometer ([…]). Fetal hemoglobin protein was assayed using the Fetal Hemoglobin Test Kit (Life Technologies) according to manufacturer’s protocol. Samples were stained with FITC-conjugated mouse IgG1 anti-human HbF antibody (clone HbF-1, Life Technologies). Each sample was also stained with a FITC-conjugated mouse IgG1 isotype control antibody (clone X40, BD Biosciences) and used as a negative control. FETALtrol cells were used as positive controls (Trillium Diagnostics). TFRC and GYPA were detected on fresh cells by staining with 20 μL of PE-conjugated anti-human TFRC (clone M-A712, catalog 555537, BD Biosciences) and 0.5 μL of FITC- or APC-conjugated anti-human GYPA (clone GA-R2 (HIR2), catalog 559943 or 551336, BD Biosciences) in 200 μL PBS with 0.1% BSA for 40 min on ice. Forward and side scatter, or staining with 7AAD (catalog 559925, BD Biosciences), was used to identify viable cells.
To investigate the effects of HDAC1/2 inhibition on erythroid maturation, we followed differentiation by flow cytometry using TFRC and GYPA [38]. BM cells were cultured in CS1 expansion media for 7 days, yielding a pool of TFRC^negGYPA^neg cells composed of primitive and more differentiated hematopoietic progenitors of multiple lineages (Fig 4, ‘day 0’). These cells were then shifted to CS1 differentiation media containing either 1 μM of ACY-957 or vehicle control. […] The majority of vehicle control cells continued to differentiate over the next 3 days, becoming TFRC^posGYPA^pos by day 8. […] TFRC^posGYPA^mid cells are equivalent to proerythroblasts, while TFRC^posGYPA^pos cells include the more differentiated basophilic and polychromatic erythroblasts. Therefore, HDAC1/2 inhibition using 1 μM of ACY-957 was able to inhibit differentiation of proerythroblasts to basophilic erythroblasts in the liquid culture systems utilized in this study.

[3] = system: GATA2 binding; test: GATA2 ChIP-Seq in erythroid progenitors; type: cell-based, human; settings: 1 μM
Method: Cells were fixed in 1% formaldehyde for 15 minutes at room temperature. Crosslinking reaction was extinguished by adding glycine to 125 mM. Cells were washed three times in PBS, 0.5% lgepal CA-630, 1 mM phenylmethanesulfonyl fluoride (PMSF). Cell pellets were snap frozen on dry ice and stored at -80°C.
ChIP-Seq was performed by Active Motif (Carlsbad, CA). Chromatin (30 μg) from vehicle (n = 1) or ACY-957 (n = 1) treated cells was immunoprecipitated (n = 1, each) with antibodies against GATA2 (20 μL, sc-9008, Santa Cruz Biotechnology), HDAC1 (20 μg, ab7028, Abcam), or HDAC2 (4 μg, ab12169, Abcam). ChIP DNA, as well as a control sample composed of equal amounts of input DNA from each treatment group, was processed into Illumina libraries using standard procedures, and libraries were sequenced on HiSeq 2000. The 50-nt sequence reads were mapped to the human genome, build Hg19, using the BWA algorithm with default settings. For the analysis, all data files were normalized to the same number of unique alignments without duplicate reads (24 million). Sequence tags were extended in silico (using Active Motif software) at their 3′-ends to a length of 150 bp. To identify the density of fragments (extended tags) along the genome, the genome was divided into 32-nt bins and the number of fragments in each bin was determined. The resulting histogram files (bigwig format) are presented in figures using the Santa Cruz Genome Browser. Visualizations were exported as an eps file and formatted using Adobe Illustrator. Regions of GATA2 enrichment (intervals) were determined using MACS peak calling software, which identifies enrichments in the ACY-957 or vehicle treated ChIP data file when compared to the input DNA data file (random background). To compare peak metrics between vehicle and ACY-957 treated samples, overlapping intervals are grouped into active regions, which are defined by the start coordinate of the most upstream interval and the end coordinate of the most downstream interval. In locations where only one sample has an interval, this interval defines the active region. […]

[4] = CS1 differentiation media, 1 μM

Chain of HDAC2 (Q92769 whole entry): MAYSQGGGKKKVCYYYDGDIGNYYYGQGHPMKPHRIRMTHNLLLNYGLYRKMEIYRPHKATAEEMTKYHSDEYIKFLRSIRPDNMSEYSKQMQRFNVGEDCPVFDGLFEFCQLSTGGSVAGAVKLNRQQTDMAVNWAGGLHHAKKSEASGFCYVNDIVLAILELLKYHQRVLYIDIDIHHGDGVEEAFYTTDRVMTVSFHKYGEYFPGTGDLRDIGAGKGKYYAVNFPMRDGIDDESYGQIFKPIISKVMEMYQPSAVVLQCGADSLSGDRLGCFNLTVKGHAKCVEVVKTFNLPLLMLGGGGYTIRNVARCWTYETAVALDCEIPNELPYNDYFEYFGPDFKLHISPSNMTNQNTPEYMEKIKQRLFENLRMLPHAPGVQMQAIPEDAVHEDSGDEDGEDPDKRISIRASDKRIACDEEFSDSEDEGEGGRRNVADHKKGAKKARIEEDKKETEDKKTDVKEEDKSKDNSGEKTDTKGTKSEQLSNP

In the case of `Nc1ccc(-c2cccs2)cc1NC(=O)c1ccc2nc(N3CCNCC3)ccc2c1` [ACY-957], the IC50 [1] is reported as 304 nM, the “erythroid differentiation by day 8” value [2, 4] is reported as “accumulated at the TFRC^posGYPA^mid stage” and the “erythroid differentiation during the first 5 days” value [2, 4] is reported as “differentiated to the same extent as vehicle treated cells”. For the same compound, the “cells in TFRC/GYPA gate (gate not named)” value ([2]; Donor 1, CS1, day 5, 1 μM, first gate listed) was 61%, the “cells in TFRC/GYPA gate (gate not named)” value ([2]; Donor 1, CS1, day 5, 1 μM, second gate listed) was 30% and the “cells in TFRC/GYPA gate (gate not named)” value ([2]; Donor 2, CS1, day 5, 1 μM, first gate listed) was 62%. For the same compound, the “cells in TFRC/GYPA gate (gate not named)” value ([2]; Donor 2, CS1, day 5, 1 μM, second gate listed) was 37%, the “cells in TFRC/GYPA gate (gate not named)” value ([2]; Donor 3, CS1, day 5, 1 μM, first gate listed) was 65% and the “cells in TFRC/GYPA gate (gate not named)” value ([2]; Donor 3, CS1, day 5, 1 μM, second gate listed) was 32%. For the same compound, the “maximum increase in GATA2 binding peak height” value ([3]; -1.8 kb GATA2 regulatory region) was 3 fold, the “GATA2 binding at the other 5 regions of the β-like globin gene cluster” value ([3]; ChIP-Seq) was “not affected” and the “increase in GATA2 binding at the HBD promoter region” value ([3]; ChIP-Seq) was 1.8 fold.
